Laboratory results reported in patent US11046651B2, “Piperazine substituted azapine derivatives and uses thereof” (Alairion, Inc., priority 2019, dated 2021).
Read-outs that look alike come from different tables or passages of the source.

What was measured:
[1] = target: 5-HT2C (Homo sapiens (Human), UniProt P28335); assay: 5-HT2C binding assay ([3H]-Mesulergine, HEK293 membranes)
[2] = tested on: male Wistar rats; assay: SCORE EEG/EMG sleep-wake monitoring: sleep continuity, number of arousals, depth of sleep; format: in vivo, rat; settings: 30 mg/kg PO
Procedure: Example 30. Experimental Details and Methods for Determining Sleep Continuity, Number of Arousals, and Depth of Sleep
Treatment detail plots (see, e.g., FIGS. 1-10) depict pre- and post-treatment time series plot ±30 hours before and after treatment at CT-18 (6-hours after lights-off) or pre- and post-treatment time series plots 29 hr before and 31 hr after treatments at CT-5 (5-hours after lights-on). Treatment occurred at the beginning of the hour marked by a triangle on the abscissa of the plot. Variables were computed in hourly bins.
All data were plotted as group mean±SEM (see, e.g., FIGS. 1-10). The gray shaded area encompasses the vehicle treatment mean±SEM. Along the x-axis, time of treatment is marked by a triangle unless noted otherwise. Along the x-axis, light/dark bars indicate lights on/off.
Adult, male Wistar rats (approximately 270 g at time of surgery, Charles River Laboratories) were administered dexmedetomidine 25 μg/kg and anesthetized (2% isoflourane in 95/5 oxygen, to effect) and surgically prepared with a cranial implant that permitted chronic electro-encephalogram (EEG) and electromyogram (EMG) recording. Body temperature and locomotor activity were monitored via a miniature transmitter (Minimitter Series PDT4000 E-Mitter, Bend, Oreg.) surgically placed in the abdomen during the same anesthetic event when the cranial portion was implanted. The cranial implant consisted of miniature stainless steel screws (2 frontal [+3.9 AP from bregma, 2.0 ML], 2 occipital [−6.4 AP, 5.5 ML], and 1 ground placed sagittaly and posterior to lambda) for EEG recording. Two Teflon-coated multi-strand stainless steel wires were positioned under the nuchal trapezoid muscles for EMG recording. All leads were soldered to a miniature connector (Omnetics, Minneapolis, Minn.) and gas sterilized with ethylene oxide prior to surgery. The implant assembly was affixed to the skull by the combination of the EEG recording screws, cyanoacrylate applied between the hermetically sealed implant connector and skull, and a UV-curing dental acrylic. An analgesic (meloxicam 1 mg/kg IP) was administered 1 day prior to surgery and daily for 2 days post-surgery. Neosporin with lidocaine was applied topically to the peri-implant margin. At least three weeks were allowed for surgical recovery prior to any data collection.
Rats were housed individually within specially modified Innovive® cages equipped with a custom-built ultra-low-torque slip-ring commutator and a customized Innovive® polycarbonate cage-top. These cages were located on shelves of a modified stainless steel animal rack that was pre-wired for physiological and behavioral data collection. Food and water were available ad libitum and the ambient temperature was 22±1° C. A 24-hr light-dark cycle (LD 12:12) was maintained throughout the study using LED lighting strips. Light intensity averaged 35 lux at mid-level inside the cage. Relative humidity averaged 50% approximately. Animals were undisturbed for two days before and after each treatment.
Sleep and wakefulness were determined using SCORE™—a Linux and Windows-10 real-time computer-based sleep-wake and physiological monitoring system. Validation of the SCORE™ sleep stage identification algorithm in rodents and the system's utility in pre-clinical drug discovery and evaluation have been previously described (Edgar et al. Psychopharmacology 1991, 105, 374; Gilmour et al., Neuropharmacology 2012, 64, 224; McCarthy et al., 2016, Neuropharmacology 108, 415; Olive et al., J. Pharmacology &Experimental Therapeutics 1998 285, 1073; Phillips et al, Neuropharmacology 2012, 62, 1359; Seidel et al. J Pharmacology &Experimental Therapeutics 1995, 275, 263; Van Gelder et al. Sleep 1991, 14, 48). […]

[3] = target: D2 (Homo sapiens (Human), UniProt P14416); assay: D2 binding assay ([3H] 7-OH-DPAT, HEK293 D2L membranes); settings: numeric values
Procedure: D2 Binding Assay Protocol
The testing compounds were diluted with DMSO, starting at 2 mM, with 8-points and 5-fold serial dilutions. droperidol was diluted with DMSO, starting at 0.2 mM, with 8-points and 4-fold serial dilutions.
1 μL of a compound of the present disclosure and the reference compound (Table O) was transferred to an assay plate. 1 μL of droperidol was transferred to an assay plate according to the plate map for nonspecific binding (Low control: LC). 1 μL of DMSO was transferred to an assay plate according to the plate map for total binding (High control: HC). Following a plate map, 100 μL of the membrane stock solutions and radio ligand were added into the plate. The plates were sealed and shaken with 300 rpm.
Unifilter-96 GF/C filter plates were soaked with 50 μL of 0.3% PEI per well for about 0.5 hours at room temperature. When the binding assays were complete, the reaction mixture was filtered through the GF/B filter plates using Perkin Elmer Filtermate Harvester, and each plate was washed 4 times with cold wash buffer. The filter plates were dried for 1 hour at 50° C. After drying, the bottom of the filter plate wells were sealed using Perkin Elmer Unifilter-96 backing seal tape. 50 μL of Perkin Elmer Microscint 20 cocktail was added. The top of the filter plates were sealed with Perkin Elmer TopSeal-A sealing film.
^3H trapped on filters were counted using Perkin Elmer MicroBeta2 Reader. Inhibition constants were calculated using the following equation: […]
The data was analyzed using Prism 5. The model used was “log(inhibitor) vs. response—Variable slope” to fit the data and calculate IC50. The IC50 was then converted to Ki using the following equation: Ki=IC50/(1+L/Kd), wherein L is the radioligand concentration in the reaction system; Kd is the affinity of radioligand to the receptor. As shown in Table Q Compound No. 7 has a lower affinity for D2 when compared to Compounds A-2, A-3, A-4, and A-5.

Sequence of 5-HT2C (P28335 33-458): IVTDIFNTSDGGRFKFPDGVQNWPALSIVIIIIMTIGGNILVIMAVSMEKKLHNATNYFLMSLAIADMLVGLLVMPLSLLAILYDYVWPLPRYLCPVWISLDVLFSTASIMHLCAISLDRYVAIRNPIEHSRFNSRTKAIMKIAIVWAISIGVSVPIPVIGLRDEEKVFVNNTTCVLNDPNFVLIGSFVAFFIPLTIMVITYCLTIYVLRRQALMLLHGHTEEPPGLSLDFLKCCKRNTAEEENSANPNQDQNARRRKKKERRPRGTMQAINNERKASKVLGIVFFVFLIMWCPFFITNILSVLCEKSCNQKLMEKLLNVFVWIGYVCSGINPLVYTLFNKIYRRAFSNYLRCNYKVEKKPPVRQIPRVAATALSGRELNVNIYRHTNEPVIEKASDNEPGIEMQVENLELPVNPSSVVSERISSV
Sequence of D2 (P14416 whole entry): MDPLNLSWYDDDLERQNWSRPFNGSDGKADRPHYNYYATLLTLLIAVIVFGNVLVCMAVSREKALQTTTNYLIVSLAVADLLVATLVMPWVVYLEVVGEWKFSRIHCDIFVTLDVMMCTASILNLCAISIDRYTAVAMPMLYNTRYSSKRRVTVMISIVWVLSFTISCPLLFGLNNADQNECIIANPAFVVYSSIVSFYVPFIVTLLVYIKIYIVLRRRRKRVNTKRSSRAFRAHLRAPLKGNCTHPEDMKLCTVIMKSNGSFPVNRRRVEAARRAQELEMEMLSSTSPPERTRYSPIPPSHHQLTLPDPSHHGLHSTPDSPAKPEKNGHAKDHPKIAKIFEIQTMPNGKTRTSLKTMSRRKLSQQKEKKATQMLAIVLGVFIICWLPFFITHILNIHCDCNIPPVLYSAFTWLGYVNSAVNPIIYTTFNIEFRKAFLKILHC

`Cc1ccc2c(c1)Oc1cc(C)ccc1C(N1CCN(CC(C)(C)C(=O)O)CC1)=N2` [Compound No. 7, 3-(4-(3,7-dimethyldibenzo[b,f][1,4]oxazepin-11-yl)piperazin-1-yl)-2,2-dimethylpropanoic acid] was tested, and the Ki [1] was greater than 0.5 µM, the Ki ([1]; numeric values) was 2.22 µM and the “reductions in the number of transitions from sleep to wake per hour relative to controls” value ([2]; CT-5, male Wistar rats) was 40-50%. For the same compound, the “increase in sleep bout-length per hour relative to vehicle control” value ([2]; CT-18, male Wistar rats) was 3-4 fold, the “normalized EEG delta power (slow wave activity) during nonREM sleep” value ([2]; CT-18, male Wistar rats) was “increases in EEG slow wave activity in nonREM sleep” and the Ki [3] was greater than 50 µM.
